This is an account of results in US20240294495A1, “COMPOUNDS THAT MEDIATE PROTEIN DEGRADATION AND METHODS OF USE THEREOF” (Monte Rosa Therapeutics, Inc., priority 2021, published 2024).

The target in experiment [1] is CRBN-DDB1 (Homo sapiens, UniProt Q96SW2). The experiment can be described thus: Compound binding to CRBN by HTRF assay. The note with it: CRBN-DDB1 2.5 nM, Cy5-Thalidomide 100 nM probe, 30 min incubation; read-out: HTRF Class (Cereblon binding, HTRF IC50). As to the method:
Compound activity was monitored in a Homogenous Time-Resolved Fluorescence (HTRF) assay using 1-[5-({2-[2-(2-{[2-(2,6-dioxopiperidin-3-yl)-1,3-dioxo-2,3-dihydro-1H-isoindol-4-yl]oxy}acetamido)ethoxy]ethyl}carbamoyl)pentyl]-3,3-dimethyl-2-[(1E,3E)-5-[(2E)-1,3,3-trimethyl-5-sulfo-2,3-dihydro-1H-indol-2-ylidene]penta-1,3-dien-1-yl]-3H-indol-1-ium-5-sulfonate as a fluorescent probe. Biochemical assays were conducted in Greiner white 384 well HiBase plates (Cat. No 784075-25) in 10 μL total volume. A one pot detection solution of CRBN-DDB1 (2.5 nM), Anti-His Terbium Cryptate Gold (1×, PerkinElmer Cat. #: 61HI2TLB), and Cy5-Thalidomide (100 nM, Tenova Cat.: T52461) was prepared in 20 mM HEPES, 20 mM NaCl, 0.2 mM TCEP, 0.2 mM EDTA, and 0.005% Tween20 was dispensed to each assay plate. Compounds were stored in dry, ambient temperatures at 10 mM. A 10-point, 1:3 dilution series was prepared from 10 mM stock concentrations in Echo-compatible LDV plates. 10 nL of each compound dilution series was dispensed into assays wells using an Echo 650 (Labcyte inc. USA). 10 nL of 10 mM Lenalidomide was transferred into the active-control wells for the assay and 10 nL of DMSO was transferred into the neutral-control wells. The assay was then allowed to incubate for 30 min at ambient temperature after transferring compound. Plate measurements were taken on a Pherastar FSX (BMG Labtech, Germany) using the HTRF Red filter (Ex. 337 nm, em1: 620 nm, em2: 665 nm) (Flashes: 50, Integration time: 60-400 us, Z-height: 10 mm, Ratio-multiplier: 10,000). The HTRF signal was then subsequently normalized to the neutral and active controls. Analysis and IC50 values were derived using KNIME analytics (KNIME Zurich) transformation and fitting within Collaborative Drug Discovery (Collaborative Drug Discovery USA). Ki was derived from the geometric mean of the IC50 values using the Cheng-Prustoff transformation.
(§1) In Table 2, each compound is assigned a class (HTRF class) indicating the ability for Cereblon binding by means of their HTRF IC50 values according to Example 3: A, B or C. According to the code, A represents an IC50 value of <100 nM, B represents an IC50 value>100 nM and <1000 nM, C represents an IC50 value>1000 nM. IF Class assigns each compound a code indicating the ability for GSPT1 degradation: A, B or C. According to the code, A represents a DC50 value of <30 nM, B represents a DC50 value>30 nM and <300 nM and C represents a DC50 value of >300 nM.
For orientation: TR-FRET usually uses a lanthanide donor and a delayed reading to cut background.

Experiment [2] has as its target T1, GSPT1 (Homo sapiens, UniProt P15170+Q96SW2).
T1 construct: CAL-51 cells were purchased from DSMZ (cat. Number ACC302); endogenous in cells; host or cells: CAL-51 (DSMZ ACC302)
Put plainly: Immunofluorescence assay for GSPT1 degradation in CAL-51 cells. Format: cell-based. The note with it: 6 h treatment, read-out: IF Class (GSPT1 degradation, DC50). How it is done:
The representative compounds were tested in an immunofluorescence assay for their activity to degrade GSPT1. CAL-51 cells were purchased from DSMZ (cat. Number ACC302), sub-cultured in 90% Dulbecco's MEM (4.5 g/L glucose, Gibco 11965)+10% heat inactivated FBS (BioConcept, 2-01F136I) and incubated at 37° C., 5% CO2. For the assay imaging microtiter plate Cell Carrier 96 Ultra (Perkin Elmer 6055302) were pre-coated with Fibronectin (Sigma F085, 30 μl at 0.2 μg/mL) in PBS (100 μL, Gibco 14190) for 45 min at room temperature, rinsed with PBS and CAL-51 cells (30K cells/well) were plated and let to adhere overnight. Cells were treated with compounds typically using a serial dilution ranging from 30 μM to 0.1 nM for 6 h. Compounds were stored at 10 mM DMSO stocks. Vehicle (DMSO), positive (CC-885, 10 μM) and rescue controls (positive control plus 0.2 μM bortezomib) were also included at this stage. Cells were subsequently rinsed with PBS and fixed in 10% Formalin solution (50 μl, Sigma HT5011)) for 20 min at room temperature. Following three consecutive PBS washes (100 μL), cells were permeabilized in 0.1% Triton X-100 in PBS (Sigma 93443, 50 μl) for 15 min at room temperature. Following three further PBS washes, 50 μl blocking buffer (1% BSA, Sigma A4503, in PBS) was added for 45 min for signal-to noise reduction. Primary antibody (human GSPT1, Sigma HPA052488) was diluted in blocking buffer (dil.1/300, 35 μL/well) and incubated with the cells overnight at 4° C. After three PBS washes, Alexa-fluor 488 coupled secondary antibodies (Invitrogen, A32731, dil.1/1000), Alexa-fluor 647-Phalloidin (Invitrogen, A22287, dil.1/200) and DAPI (Thermo, #62248, dil.1/1000) were diluted in blocking buffer and incubated with the samples for 2 h at room temperature. After three final PBS washes, samples were conserved in 100 μL PBS in the dark, until measurement. Image acquisition was performed on the Operetta High-Content Imager (Perkin-Elmer). Fluorescence intensity of […] (GSPT1), Alexa-Fluor 647 (Actin) and DAPI (Nucleus) were measured. For the determination of GSPT1 DC50 values, a custom algorithm implemented in the PerkinElmer image analysis software Harmony-Acapella® was developed. After user-defined setting of adjustment parameters, the analysis was run identically without human intervention for all image fields. DAPI staining of the nuclei was used to determine the location of cells using standard nuclei detection modules. Segmentation artifacts were removed by threshold-based filters for area, roundness and intensity. The outline of the cells was determined analogously from the sum of the normalized, smoothed DAPI and Actin channel, starting from each nucleus. The Alexa-Fluor 488 (GSPT1) signal intensity in each cell was finally measured, in order to obtain a Mean intensity per cell. GSPT1 degradation (DC50) was calculated after normalization to controls and data import in CDD vault Database, using non-linear regression.
as §1

T1 sequence (P15170 whole entry): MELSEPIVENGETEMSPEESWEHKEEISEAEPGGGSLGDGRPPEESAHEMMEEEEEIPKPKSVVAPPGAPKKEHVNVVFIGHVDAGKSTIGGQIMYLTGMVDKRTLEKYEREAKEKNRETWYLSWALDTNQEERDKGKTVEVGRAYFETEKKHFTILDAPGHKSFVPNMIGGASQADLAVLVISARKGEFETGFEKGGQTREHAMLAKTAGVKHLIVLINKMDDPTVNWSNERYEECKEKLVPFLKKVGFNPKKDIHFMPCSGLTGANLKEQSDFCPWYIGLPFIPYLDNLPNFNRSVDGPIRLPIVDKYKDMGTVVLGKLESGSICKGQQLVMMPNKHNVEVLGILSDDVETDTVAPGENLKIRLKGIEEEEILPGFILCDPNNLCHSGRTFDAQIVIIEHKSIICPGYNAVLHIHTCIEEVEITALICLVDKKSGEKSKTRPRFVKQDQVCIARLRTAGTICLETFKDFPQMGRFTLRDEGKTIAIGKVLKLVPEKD
T1 sequence (Q96SW2 whole entry): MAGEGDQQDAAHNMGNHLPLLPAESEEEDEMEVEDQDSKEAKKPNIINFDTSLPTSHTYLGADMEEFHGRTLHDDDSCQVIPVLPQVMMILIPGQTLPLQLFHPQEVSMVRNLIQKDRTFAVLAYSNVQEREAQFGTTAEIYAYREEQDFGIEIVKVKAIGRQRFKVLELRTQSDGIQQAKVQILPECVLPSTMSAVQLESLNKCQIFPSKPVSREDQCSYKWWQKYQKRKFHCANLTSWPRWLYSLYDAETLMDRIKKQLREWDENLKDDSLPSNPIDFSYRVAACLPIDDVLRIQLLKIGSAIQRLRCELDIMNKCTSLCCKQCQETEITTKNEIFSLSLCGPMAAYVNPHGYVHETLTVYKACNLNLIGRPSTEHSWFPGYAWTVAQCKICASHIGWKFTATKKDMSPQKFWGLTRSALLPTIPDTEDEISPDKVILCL
T1 sequence (Q16531 2-1140 partner limits assumed): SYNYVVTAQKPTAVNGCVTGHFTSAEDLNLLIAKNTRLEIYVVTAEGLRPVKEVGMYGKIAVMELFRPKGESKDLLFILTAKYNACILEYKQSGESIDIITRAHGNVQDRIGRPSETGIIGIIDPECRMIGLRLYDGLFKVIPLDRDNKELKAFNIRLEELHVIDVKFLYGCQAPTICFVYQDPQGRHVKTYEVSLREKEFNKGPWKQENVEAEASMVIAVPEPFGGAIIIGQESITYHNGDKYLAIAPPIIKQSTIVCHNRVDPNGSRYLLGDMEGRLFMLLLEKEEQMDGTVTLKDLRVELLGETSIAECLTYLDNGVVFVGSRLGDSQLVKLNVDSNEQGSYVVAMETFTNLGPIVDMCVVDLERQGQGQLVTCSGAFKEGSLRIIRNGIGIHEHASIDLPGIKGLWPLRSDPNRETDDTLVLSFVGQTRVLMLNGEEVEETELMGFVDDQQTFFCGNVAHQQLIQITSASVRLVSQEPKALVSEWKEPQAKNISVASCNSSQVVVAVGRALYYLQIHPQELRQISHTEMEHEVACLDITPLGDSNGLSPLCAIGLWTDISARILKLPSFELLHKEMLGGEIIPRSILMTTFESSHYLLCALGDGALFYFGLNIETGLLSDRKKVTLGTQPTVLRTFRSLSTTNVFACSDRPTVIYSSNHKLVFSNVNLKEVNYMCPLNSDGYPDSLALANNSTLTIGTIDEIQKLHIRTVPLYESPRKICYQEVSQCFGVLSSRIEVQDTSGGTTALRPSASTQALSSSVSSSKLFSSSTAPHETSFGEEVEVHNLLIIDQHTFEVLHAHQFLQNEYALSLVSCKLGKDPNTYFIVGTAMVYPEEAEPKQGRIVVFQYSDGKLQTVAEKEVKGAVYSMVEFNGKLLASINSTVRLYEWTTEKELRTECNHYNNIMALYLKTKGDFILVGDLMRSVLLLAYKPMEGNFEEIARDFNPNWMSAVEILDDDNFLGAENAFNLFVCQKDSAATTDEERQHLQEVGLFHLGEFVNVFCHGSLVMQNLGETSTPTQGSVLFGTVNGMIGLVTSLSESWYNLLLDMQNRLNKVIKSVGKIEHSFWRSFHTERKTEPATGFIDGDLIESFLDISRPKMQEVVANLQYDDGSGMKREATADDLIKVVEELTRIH
Chain of CRBN-DDB1 (Q96SW2 whole entry): as the sequence (Q96SW2 whole entry) above
Chain of CRBN-DDB1 (Q16531 whole entry partner): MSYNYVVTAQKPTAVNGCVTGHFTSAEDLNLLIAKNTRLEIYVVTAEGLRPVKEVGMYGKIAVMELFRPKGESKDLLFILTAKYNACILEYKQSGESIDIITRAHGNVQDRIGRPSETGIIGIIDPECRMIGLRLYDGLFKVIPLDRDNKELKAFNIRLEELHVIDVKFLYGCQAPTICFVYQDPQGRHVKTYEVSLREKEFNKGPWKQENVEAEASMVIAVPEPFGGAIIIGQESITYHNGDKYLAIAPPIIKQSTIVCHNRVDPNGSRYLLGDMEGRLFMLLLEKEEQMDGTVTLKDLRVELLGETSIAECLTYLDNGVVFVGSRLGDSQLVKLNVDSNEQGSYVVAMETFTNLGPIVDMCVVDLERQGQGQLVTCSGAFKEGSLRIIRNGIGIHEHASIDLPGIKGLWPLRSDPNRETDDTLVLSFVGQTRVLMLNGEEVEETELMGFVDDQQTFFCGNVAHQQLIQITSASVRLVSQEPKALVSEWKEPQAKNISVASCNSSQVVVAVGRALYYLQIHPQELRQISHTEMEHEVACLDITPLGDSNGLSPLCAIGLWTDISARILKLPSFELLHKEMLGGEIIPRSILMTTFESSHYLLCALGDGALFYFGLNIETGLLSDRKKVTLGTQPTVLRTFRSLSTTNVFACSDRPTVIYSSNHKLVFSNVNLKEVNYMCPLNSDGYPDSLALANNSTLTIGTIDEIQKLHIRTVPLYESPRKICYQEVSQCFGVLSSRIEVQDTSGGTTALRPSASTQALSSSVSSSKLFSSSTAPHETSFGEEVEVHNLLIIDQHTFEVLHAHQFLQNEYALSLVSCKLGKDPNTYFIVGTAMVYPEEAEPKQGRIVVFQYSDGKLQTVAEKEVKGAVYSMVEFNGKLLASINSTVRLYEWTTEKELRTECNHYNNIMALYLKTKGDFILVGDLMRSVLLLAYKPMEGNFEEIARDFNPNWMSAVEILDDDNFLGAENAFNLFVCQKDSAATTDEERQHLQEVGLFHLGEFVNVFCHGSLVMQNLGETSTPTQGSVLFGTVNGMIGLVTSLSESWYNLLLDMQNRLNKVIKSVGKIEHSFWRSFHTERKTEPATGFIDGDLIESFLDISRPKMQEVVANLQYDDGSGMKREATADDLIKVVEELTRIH

As for `O=C1CCC(c2c(F)cc(N3CC(NC(=O)Cc4c(F)cc(Cl)cc4F)C3)cc2F)C(=O)N1` (stereo not shown) [Compound 16, 2-(4-chloro-2,6-difluorophenyl)-N-(1-(4-(2,6-dioxopiperidin-3-yl)-3,5-difluorophenyl)azetidin-3-yl) acetamide], in experiment [1], the IC50 lay within 100 to 1000 nM. Moreover, the 50% degradation concentration (DC50) in experiment [2] was in the range of 30 to 300 nM.
Taken in the same sequence, the figures for `Cc1cc(F)c(NC(=O)CC2CN(c3cc(F)c(C4CCC(=O)NC4=O)c(F)c3)C2)cc1Cl` (stereo not shown) [Compound 5, N-(5-chloro-2-fluoro-4-methylphenyl)-2-(1-(4-(2,6-dioxopiperidin-3-yl)-3,5-difluorophenyl)azetidin-3-yl)acetamide] were 100 to 1000 nM and less than 30 nM.
In the same order, the values of `Cc1cc(C)nc(CC(=O)NC2CN(c3cc(F)c(C4CCC(=O)NC4=O)c(F)c3)C2)c1` (stereo not shown) [Compound 51, 2-(4,6-dimethylpyridin-2-yl)-N-(1-(4-(2,6-dioxopiperidin-3-yl)-3,5-difluorophenyl)azetidin-3-yl) acetamide] are 100 to 1000 nM and greater than 300 nM.
Taken in the same sequence, the figures for `Cc1cc(CC(=O)NC2CN(c3ccc(C4CCC(=O)NC4=O)c(Cl)c3)C2)ccc1Cl` (stereo not shown) [Compound 33, 2-(4-chloro-3-methylphenyl)-N-(1-(3-chloro-4-(2,6-dioxopiperidin-3-yl)phenyl)azetidin-3-yl)acetamide] were 100 to 1000 nM and 30 to 300 nM.
Consider `O=C1CCC(c2c(F)cc(N3CC(NC(=O)Cc4ccc5c(c4)OCC5)C3)cc2F)C(=O)N1` (stereo not shown) [Compound 24, 2-(2,3-dihydrobenzofuran-6-yl)-N-(1-(4-(2,6-dioxopiperidin-3-yl)-3,5-difluorophenyl)azetidin-3-yl)acetamide], for which, in experiment [1], the IC50 was 100 to 1000 nM. In addition, the half-maximal degradation concentration (DC50) in experiment [2] was greater than 300 nM.
For `O=C1CCC(c2c(F)cc(N3CC(NC(=O)CC4CCC4)C3)cc2F)C(=O)N1` (stereo not shown) [Compound 2, 2-cyclobutyl-N-(1-(4-(2,6-dioxopiperidin-3-yl)-3,5-difluorophenyl)azetidin-3-yl)acetamide], in experiment [1], the IC50 lay in the range of 100 to 1000 nM. In experiment [2], the DC50 was greater than 300 nM.
In the same order, the values of `O=C1CCC(c2c(F)cc(N3CC(NC(=O)Cc4cccc(OC(F)(F)F)c4)C3)cc2F)C(=O)N1` (stereo not shown) [Compound 28, N-(1-(4-(2,6-dioxopiperidin-3-yl)-3,5-difluorophenyl)azetidin-3-yl)-2-(3-(trifluoromethoxy)phenyl) acetamide] are 100 to 1000 nM and 30 to 300 nM.
In the same order, the values of `Cc1cc(C)cc(C(F)(F)C(=O)NC2CN(c3cc(F)c(C4CCC(=O)NC4=O)c(F)c3)C2)c1` (stereo not shown) [Compound 50, 2-(3,5-dimethylphenyl)-N-(1-(4-(2,6-dioxopiperidin-3-yl)-3,5-difluorophenyl)azetidin-3-yl)-2,2-difluoroacetamide] are 100 to 1000 nM and greater than 300 nM.
Taken in the same sequence, the figures for `O=C1CCC(c2c(F)cc(N3CC(NC(=O)Cc4ccc(F)c(F)c4)C3)cc2F)C(=O)N1` (stereo not shown) [Compound 17, 2-(3,4-difluorophenyl)-N-(1-(4-(2,6-dioxopiperidin-3-yl)-3,5-difluorophenyl)azetidin-3-yl)acetamide] were 100 to 1000 nM and greater than 300 nM.
Regarding `O=C1CCC(c2c(F)cc(N3CC(NC(=O)Cc4ccc(Cl)cc4F)C3)cc2F)C(=O)N1` (stereo not shown) [Compound 31, 2-(4-chloro-2-fluorophenyl)-N-(1-(4-(2,6-dioxopiperidin-3-yl)-3,5-difluorophenyl)azetidin-3-yl)acetamide], the 50% inhibitory concentration (IC50) in experiment [1] was 100 to 1000 nM. For the same compound, the DC50 in experiment [2] was 30 to 300 nM.
Taken in the same sequence, the figures for `O=C1CCC(c2c(F)cc(N3CC(NC(=O)Cc4cc(F)cc(F)c4)C3)cc2F)C(=O)N1` (stereo not shown) [Compound 8, 2-(3,5-difluorophenyl)-N-(1-(4-(2,6-dioxopiperidin-3-yl)-3,5-difluorophenyl)azetidin-3-yl) acetamide] were 100 to 1000 nM and greater than 300 nM.
Turning to `N#Cc1ccc(CC(=O)NC2CN(c3cc(F)c(C4CCC(=O)NC4=O)c(F)c3)C2)cc1Cl` (stereo not shown) [Compound 48, 2-(3-chloro-4-cyanophenyl)-N-(1-(4-(2,6-dioxopiperidin-3-yl)-3,5-difluorophenyl)azetidin-3-yl)acetamide], the IC50 in experiment [1] was less than 100 nM. Moreover, the DC50 in experiment [2] was greater than 300 nM.
As to `Cc1cc(Cl)ccc1CC(=O)NC1CN(c2cc(F)c(C3CCC(=O)NC3=O)c(F)c2)C1` (stereo not shown) [Compound 52, 2-(4-chloro-2-methylphenyl)-N-(1-(4-(2,6-dioxopiperidin-3-yl)-3,5-difluorophenyl)azetidin-3-yl)acetamide], in experiment [1], the IC50 lay within 100 to 1000 nM. In addition, in experiment [2], the half-maximal degradation concentration (DC50) lay in the range of 30 to 300 nM.
On to `O=C1CCC(c2c(F)cc(N3CC(NC(=O)Cc4ccc(Cl)cn4)C3)cc2F)C(=O)N1` (stereo not shown) [Compound 10, 2-(5-chloropyridin-2-yl)-N-(1-(4-(2,6-dioxopiperidin-3-yl)-3,5-difluorophenyl)azetidin-3-yl)acetamide], for which the IC50 in experiment [1] was less than 100 nM. Further, the DC50 in experiment [2] was greater than 300 nM.
Regarding `N#Cc1ccc(CC(=O)NC2CN(c3cc(F)c(C4CCC(=O)NC4=O)c(F)c3)C2)c(Cl)c1` (stereo not shown) [Compound 1, 2-(2-chloro-4-cyanophenyl)-N-(1-(4-(2,6-dioxopiperidin-3-yl)-3,5-difluorophenyl)azetidin-3-yl)acetamide], the IC50 in experiment [1] lay in the range of 100 to 1000 nM. For the same compound, in experiment [2], the DC50 was greater than 300 nM.
For the compound `Cc1cc(CC(=O)NC2CN(c3cc(F)c(C4CCC(=O)NC4=O)c(F)c3)C2)ncc1Cl` (stereo not shown) [Compound 22, 2-(5-chloro-4-methylpyridin-2-yl)-N-(1-(4-(2,6-dioxopiperidin-3-yl)-3,5-difluorophenyl)azetidin-3-yl)acetamide], the IC50 in experiment [1] fell in the range of 100 to 1000 nM. Further, in experiment [2], the DC50 was greater than 300 nM.
Taken in the same sequence, the figures for `Cc1cc(CC(=O)NC2CN(c3cc(F)c(C4CCC(=O)NC4=O)c(F)c3)C2)cc(C)n1` (stereo not shown) [Compound 49, 2-(2,6-dimethylpyridin-4-yl)-N-(1-(4-(2,6-dioxopiperidin-3-yl)-3,5-difluorophenyl)azetidin-3-yl)acetamide] were 100 to 1000 nM and greater than 300 nM.

Usually IC50 stands for the concentration at which inhibition is half-maximal. A word on the DC50: it is the midpoint of the concentration-degradation curve.
